Measured values from patent US20230139171A1 (SITA Information Networking Computing UK Limited, priority 2019, published 2023).

Experiments:
Type in all cases: cell-based
[1] = molecular target: T1, human TLR8 (Homo sapiens, UniProt Q9NR97); assay: TLR8 inhibition reporter assay (HEK-Blue cells, SEAP reporter, R848 stimulation); conditions: HEK-Blue cells overexpressing human TLR8, SEAP reporter, R848 15.9 μM; read-out: TLR8 IC50
T1 construct: host or cells: HEK-Blue cells
T1 sequence (Q9NR97 27-1041): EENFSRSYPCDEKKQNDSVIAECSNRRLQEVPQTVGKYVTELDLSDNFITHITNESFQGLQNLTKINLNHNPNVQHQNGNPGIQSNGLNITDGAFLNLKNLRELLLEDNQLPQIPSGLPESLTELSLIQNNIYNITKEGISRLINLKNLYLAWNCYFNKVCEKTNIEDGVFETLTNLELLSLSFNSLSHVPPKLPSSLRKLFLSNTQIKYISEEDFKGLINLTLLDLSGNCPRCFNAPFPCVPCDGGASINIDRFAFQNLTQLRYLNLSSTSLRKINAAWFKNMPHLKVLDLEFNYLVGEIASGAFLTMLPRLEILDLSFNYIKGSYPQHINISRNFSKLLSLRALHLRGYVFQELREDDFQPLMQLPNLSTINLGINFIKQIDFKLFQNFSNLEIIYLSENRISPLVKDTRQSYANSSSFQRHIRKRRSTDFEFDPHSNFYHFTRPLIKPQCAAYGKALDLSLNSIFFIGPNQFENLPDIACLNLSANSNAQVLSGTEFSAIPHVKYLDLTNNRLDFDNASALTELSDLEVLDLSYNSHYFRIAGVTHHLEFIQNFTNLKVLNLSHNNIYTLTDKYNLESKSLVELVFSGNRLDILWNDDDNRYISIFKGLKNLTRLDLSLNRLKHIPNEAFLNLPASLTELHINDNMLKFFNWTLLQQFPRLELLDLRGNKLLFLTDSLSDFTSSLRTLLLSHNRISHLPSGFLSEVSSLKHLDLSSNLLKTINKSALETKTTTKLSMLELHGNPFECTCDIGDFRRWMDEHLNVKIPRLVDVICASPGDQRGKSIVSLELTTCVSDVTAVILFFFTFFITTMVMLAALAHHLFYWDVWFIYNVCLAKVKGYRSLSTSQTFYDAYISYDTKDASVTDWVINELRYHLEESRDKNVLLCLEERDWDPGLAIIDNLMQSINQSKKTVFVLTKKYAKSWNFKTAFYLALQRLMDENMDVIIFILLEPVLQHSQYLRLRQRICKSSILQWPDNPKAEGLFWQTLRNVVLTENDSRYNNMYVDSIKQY
Summary of the method: (§1)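 Dose–response from 0.05 nM to 50 μM was run in HEK-Blue human TLR7, TLR8 and TLR9 reporter cells. After 30 min at room temperature with compound, ligand was added (TLR7 gardiquimod 7.5 μM; TLR8 R848 15.9 μM; TLR9 ODN2006 5 nM) and SEAP measured next day, at 22 h.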

[2] = molecular target: T2, human TLR7 (Homo sapiens, UniProt Q9NYK1); assay: TLR7 inhibition reporter assay (HEK-Blue cells, SEAP reporter, gardiquimod stimulation); conditions: HEK-Blue cells overexpressing human TLR7, SEAP reporter, gardiquimod 7.5 μM; read-out: TLR7 IC50
T2 construct: host or cells: HEK-Blue cells
T2 sequence (Q9NYK1 27-1049): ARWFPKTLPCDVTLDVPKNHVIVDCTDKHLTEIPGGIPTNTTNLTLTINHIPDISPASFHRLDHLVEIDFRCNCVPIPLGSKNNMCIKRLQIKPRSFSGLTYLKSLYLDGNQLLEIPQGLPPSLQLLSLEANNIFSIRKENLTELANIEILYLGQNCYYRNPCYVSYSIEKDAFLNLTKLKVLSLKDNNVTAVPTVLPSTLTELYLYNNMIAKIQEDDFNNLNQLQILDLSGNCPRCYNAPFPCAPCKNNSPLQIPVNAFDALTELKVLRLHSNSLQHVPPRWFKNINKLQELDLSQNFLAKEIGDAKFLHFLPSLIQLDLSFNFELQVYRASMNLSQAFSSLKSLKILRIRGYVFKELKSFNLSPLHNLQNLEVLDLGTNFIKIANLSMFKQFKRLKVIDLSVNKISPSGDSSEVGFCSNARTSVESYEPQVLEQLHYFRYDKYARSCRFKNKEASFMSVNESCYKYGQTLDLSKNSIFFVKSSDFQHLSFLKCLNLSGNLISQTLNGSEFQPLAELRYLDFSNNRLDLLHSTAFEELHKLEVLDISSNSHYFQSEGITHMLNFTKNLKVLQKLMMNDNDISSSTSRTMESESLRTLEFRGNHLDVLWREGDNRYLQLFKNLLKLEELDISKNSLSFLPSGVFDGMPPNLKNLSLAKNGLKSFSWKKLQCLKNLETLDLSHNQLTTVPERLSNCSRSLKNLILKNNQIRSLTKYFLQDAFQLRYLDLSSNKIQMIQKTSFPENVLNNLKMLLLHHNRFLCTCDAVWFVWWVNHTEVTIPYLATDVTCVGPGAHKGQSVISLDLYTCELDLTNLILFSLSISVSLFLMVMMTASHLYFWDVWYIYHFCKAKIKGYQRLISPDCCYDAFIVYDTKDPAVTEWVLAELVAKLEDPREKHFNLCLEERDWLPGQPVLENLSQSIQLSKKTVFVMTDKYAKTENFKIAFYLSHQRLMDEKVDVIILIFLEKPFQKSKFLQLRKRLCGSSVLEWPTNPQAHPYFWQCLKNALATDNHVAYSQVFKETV
Summary of the method: as §1

[3] = molecular target: T3, human TLR9 (Homo sapiens, UniProt Q9NR96); assay: TLR9 inhibition reporter assay (HEK-Blue cells, SEAP reporter, ODN2006 stimulation); conditions: HEK-Blue cells overexpressing human TLR9, SEAP reporter, ODN2006 5 nM
T3 construct: host or cells: HEK-Blue cells
T3 sequence (Q9NR96 26-1032): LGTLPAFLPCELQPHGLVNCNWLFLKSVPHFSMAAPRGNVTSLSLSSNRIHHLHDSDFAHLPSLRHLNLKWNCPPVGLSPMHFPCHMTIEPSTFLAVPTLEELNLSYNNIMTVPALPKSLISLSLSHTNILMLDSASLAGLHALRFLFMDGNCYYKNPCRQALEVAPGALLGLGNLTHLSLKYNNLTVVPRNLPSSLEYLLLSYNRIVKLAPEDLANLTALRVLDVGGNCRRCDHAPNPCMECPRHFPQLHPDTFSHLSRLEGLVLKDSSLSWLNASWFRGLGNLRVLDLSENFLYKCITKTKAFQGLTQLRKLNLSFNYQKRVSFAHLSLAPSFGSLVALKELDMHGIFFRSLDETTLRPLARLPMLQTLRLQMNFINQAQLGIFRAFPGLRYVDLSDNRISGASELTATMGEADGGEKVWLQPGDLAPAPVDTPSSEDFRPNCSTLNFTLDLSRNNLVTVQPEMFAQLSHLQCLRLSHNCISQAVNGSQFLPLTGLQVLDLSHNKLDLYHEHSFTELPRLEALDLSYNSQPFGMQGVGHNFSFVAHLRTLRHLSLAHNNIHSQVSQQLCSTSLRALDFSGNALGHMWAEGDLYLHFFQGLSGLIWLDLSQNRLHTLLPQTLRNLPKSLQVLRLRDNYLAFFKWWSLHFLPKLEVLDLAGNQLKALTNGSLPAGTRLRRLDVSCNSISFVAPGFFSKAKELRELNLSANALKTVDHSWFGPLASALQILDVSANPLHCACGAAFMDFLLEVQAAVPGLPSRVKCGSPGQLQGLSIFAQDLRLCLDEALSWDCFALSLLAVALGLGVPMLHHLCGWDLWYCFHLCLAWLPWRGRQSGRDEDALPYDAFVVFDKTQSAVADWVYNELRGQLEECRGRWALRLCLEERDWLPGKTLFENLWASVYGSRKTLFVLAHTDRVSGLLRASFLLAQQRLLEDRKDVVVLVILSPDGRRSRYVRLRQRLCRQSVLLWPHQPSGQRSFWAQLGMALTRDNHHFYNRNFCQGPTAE
Summary of the method: as §1

Row | SMILES | IC50 [1] [nM] | IC50 [2] [nM] | IC50 [3] [nM]
1 | Cc1c(-c2[nH]c3sc(C4CCC(N5CC(O)C5)CC4)nc3c2C(C)C)cn2ncnc2c1C (single isomer, unassigned) [Example 224, 1-(4-(5-(7,8-dimethyl-[1,2,4]triazolo[1,5-a]pyridin-6-yl)-6-isopropyl-4H-pyrrolo[3,2-d]thiazol-2-yl)cyclohexyl)azetidin-3-ol] | 0.63 | 0.56 | 9030
2 | Cc1c(-c2[nH]c3sc(C4CCC(N5CC(O)C5)CC4)nc3c2C(C)C)cn2ncnc2c1C (single isomer, unassigned) [Example 225, 1-(4-(5-(7,8-dimethyl-[1,2,4]triazolo[1,5-a]pyridin-6-yl)-6-isopropyl-4H-pyrrolo[3,2-d]thiazol-2-yl)cyclohexyl)azetidin-3-ol] | 3.94 | 2.56 | 5490
3 | Cc1c(-c2[nH]c3sc(C4CCC(N5CC(F)C5)CC4)nc3c2C(C)C)cn2ncnc2c1C (single isomer, unassigned) [Example 226, 5-(7,8-dimethyl-[1,2,4]triazolo[1,5-a]pyridin-6-yl)-2-(4-(3-fluoroazetidin-1-yl)cyclohexyl)-6-isopropyl-4H-pyrrolo[3,2-d]thiazole] | 0.41 | 0.35 | 6780
4 | Cc1c(-c2[nH]c3sc(C4CCC(N5CC(F)C5)CC4)nc3c2C(C)C)cn2ncnc2c1C (single isomer, unassigned) [Example 227, 5-(7,8-dimethyl-[1,2,4]triazolo[1,5-a]pyridin-6-yl)-2-(4-(3-fluoroazetidin-1-yl)cyclohexyl)-6-isopropyl-4H-pyrrolo[3,2-d]thiazole] | 11.4 | 4.43 | 18200
5 | Cc1c(-c2[nH]c3sc(C4CCC(N(C)CC(C)C)CC4)nc3c2C(C)C)cn2ncnc2c1C (single isomer, unassigned) [Example 228, 4-(5-(7,8-dimethyl-[1,2,4]triazolo[1,5-a]pyridin-6-yl)-6-isopropyl-4H-pyrrolo[3,2-d]thiazol-2-yl)-N-isobutyl-N-methylcyclohexan-1-amine] | 1.46 | 2.18 | 8860
6 | Cc1c(-c2[nH]c3sc(C4CCC(N(C)CC(C)C)CC4)nc3c2C(C)C)cn2ncnc2c1C (single isomer, unassigned) [Example 229, 4-(5-(7,8-dimethyl-[1,2,4]triazolo[1,5-a]pyridin-6-yl)-6-isopropyl-4H-pyrrolo[3,2-d]thiazol-2-yl)-N-isobutyl-N-methylcyclohexan-1-amine] | 3.71 | 7.1 | 4960
7 | Cc1c(-c2[nH]c3sc(C4CCC(NC5CCS(=O)(=O)C5)CC4)nc3c2C(C)C)cn2ncnc2c1C (single isomer, unassigned) [Example 231, 3-((4-(5-(7,8-dimethyl-[1,2,4]triazolo[1,5-a]pyridin-6-yl)-6-isopropyl-4H-pyrrolo[3,2-d]thiazol-2-yl)cyclohexyl)amino)tetrahydrothiophene 1,1-dioxide] | 1.19 | 6.32 | 49500
8 | Cc1c(-c2[nH]c3sc(C4CCC(NC5CCS(=O)(=O)C5)CC4)nc3c2C(C)C)cn2ncnc2c1C (single isomer, unassigned) [Example 232, 3-((4-(5-(7,8-dimethyl-[1,2,4]triazolo[1,5-a]pyridin-6-yl)-6-isopropyl-4H-pyrrolo[3,2-d]thiazol-2-yl)cyclohexyl)amino)tetrahydrothiophene 1,1-dioxide] | 7.87 | 4.19 | > 50000
9 | Cc1c(-c2[nH]c3sc(C4CCC(N5CC6(C5)CS(=O)(=O)C6)CC4)nc3c2C(C)C)cn2ncnc2c1C (single isomer, unassigned) [Example 233, 6-(4-(5-(7,8-dimethyl-[1,2,4]triazolo[1,5-a]pyridin-6-yl)-6-isopropyl-4H-pyrrolo[3,2-d]thiazol-2-yl)cyclohexyl)-2-thia-6-azaspiro[3.3]heptane 2,2-dioxide] | 0.59 | 2.3 | > 50000
10 | Cc1c(-c2[nH]c3sc(C4CCC(N5CC6(C5)CS(=O)(=O)C6)CC4)nc3c2C(C)C)cn2ncnc2c1C (single isomer, unassigned) [Example 234, 6-(4-(5-(7,8-dimethyl-[1,2,4]triazolo[1,5-a]pyridin-6-yl)-6-isopropyl-4H-pyrrolo[3,2-d]thiazol-2-yl)cyclohexyl)-2-thia-6-azaspiro[3.3]heptane 2,2-dioxide] | 59.8 | 15.1 | > 50000
11 | Cc1c(-c2[nH]c3sc(C4CCC(N5CC(O)(C(F)(F)F)C5)CC4)nc3c2C(C)C)cn2ncnc2c1C (single isomer, unassigned) [Example 235, 1-(4-(5-(7,8-dimethyl-[1,2,4]triazolo[1,5-a]pyridin-6-yl)-6-isopropyl-4H-pyrrolo[3,2-d]thiazol-2-yl)cyclohexyl)-3-(trifluoromethyl)azetidin-3-ol] | 1.01 | 1.05 | 16600
